In US20170145002A1, “DEUTERATED ISOXAZOLE DERIVATIVES AND THEIR USE AS METABOTROPIC GLUTAMATE RECEPTOR POTENTIATORS” (AstraZeneca AB, priority 2015, published 2017):

Columns and labels:
[1] = target: T1, human metabotropic glutamate receptor 2 (mGluR2) (Homo sapiens, UniProt Q14416); test: Binding Assay (mGluR2 GTPγ35S assay); assay type: biochemical; settings: membranes from CHO-K1 cells expressing human mGluR2; L-glutamate and GTPγ35S stimulation, 45 minutes, SPA
T1 construct: expressed in transfected cells; host or cells: CHO-K1
Protocol: This assay was developed to measure the agonist and/or positive allosteric modulator (PAM) activity of compounds at the human metabotropic glutamate receptor 2 (mGluR2).
Crude membranes were prepared from CHO-K1 cells expressing human mGluR2 and stored at −80° C. in aliquots in 2 mg/mL concentrations using a previously described method Fenge et al., Cytotechnology 38 (2002). Assay buffer is defined as 0.22 μM filtered water containing 50 mM HEPES (Teknova), 10 mM MgCl2 (Teknova), 50 mM NaCl (Teknova), 100 μM DTT (Sigma 43819), pH 7.4. Membrane solution containing membranes, beads, and GDP diluted in assay buffer was prepared in excess and incubated for 15 to 30 minutes at room temperature (25° C.). Membrane solution was prepared in a per-well ratio of 1.8 μg membranes, 225 μg PVT-WGA SPA beads (Perkin Elmer RPNQ0001), 3.3 μM GDP (Sigma G7127) in assay buffer to a final per-well volume of 180 μl. Stimulation buffer was prepared by diluting L-glutamate to 10 μM and GTPγ^35S to 1 nM in assay buffer. […] 20 μL of stimulation buffer was then added to individual wells, plates were sealed, incubated on a shaker at room temperature for 45 minutes, centrifuged at 1000 RPM for 5 minutes and then assessed using a ^35S SPA Program (1 minute read time. Low Background Paralux) on a MicroBeta instrument (PerkinElmer, Waltham, Massachusetts).

[2] = Pharmacokinetics after intravenous bolus in rats; assay type: in vivo; settings: male Wistar rat, nominal dose 1.0 mg/kg, plasma
Protocol: The animals were single dosed via intravenous (IV) bolus to tail vein over approximately 5 seconds. The animals were not fasted prior to dosing. The single dose formulation samples were collected from middle of formulation and stored at 5±3° C. for potential analysis. Animals were evaluated during in-life phase.
The blood samples were centrifuged at 2000 g for 5 minutes at 4° C. to obtain plasma. Plasma samples were stored in polypropylene tubes, quickly frozen in ice box and kept at −80° C. Plasma samples were deprotainated by solvent precipitation. Concentration of Compounds A and D in plasma and tissue samples were analyzed using a LC-MS/MS method. WinNonlin version 6.2 will be used for pharmacokinetic parameters calculations. AUC was calculated using log trapezoidal method.

[3] = Compound turnover and metabolite formation in human hepatocytes with or without CYP3A inhibitor ketoconazole; assay type: in vitro ADME
Protocol: Approximately 10% of Compound A disappeared in 60 minutes.
Since Compound D was predominantly metabolized by CYP3A4, further experiments were conducted with Compound A in human hepatocytes in the presence and absence of CYP3A inhibitor ketoconazole. […] Parent disappearance data indicated a CYP3A involvement in the metabolism of Compound A (FIG. 1); however, the very low intrinsic clearance values make it difficult to provide an accurate determination of a percentage involvement of CYP3A via a substrate depletion method as described above.
Within the same experiments, the formation of Compound A metabolites in the absence of ketoconazole was observed (FIG. 2).

[4] = test system: recombinant CYP enzymes (CYP1A2, 2A6, 2B6, 2C8, 2C9, 2C19, 2D6, 2E1, 3A4 and 3A5); test: Turnover in recombinant CYP enzymes; assay type: in vitro ADME; settings: 0.1 μM and 1 μM
Protocol: To identify the enzymes responsible for P450 mediated metabolism, the turnover of Compound A was tested in recombinant CYP enzymes (CYP1A2, 2A6, 2B6, 2C8, 2C9, 2C19, 2D6, 2E1, 3A4 and 3A5) at 0.1 μM and 1 μM.

[5] = Metabolite identification and relative abundance in human hepatocytes; assay type: in vitro ADME; settings: Compound A 10 μM in human hepatocytes (1 million cells/mL), 4 hours, 37° C.
Protocol: Compound A was incubated at 10 μM in human hepatocytes (1 million cells/mL) for 4 hours at 37° C. under air with 5% CO2. The reaction was stopped by adding acetonitrile at a ratio of 3:1. Following centrifugation the supernatant was transferred to a clean tube and dried under a stream of N2. Following reconstitution in 30% acetonitrile, aliquots of the sample were injected onto a LC/UV/MS system for metabolite identification and profiling. This allowed assessment of the metabolites formed and an indication of their relative abundance (via UV, Table 6).

[6] = as disclosed in WO 2009/148403; cited from earlier work
[7] = target: hERG ion channel (Homo sapiens, UniProt Q12809); settings: as disclosed in WO 2009/148403; cited from earlier work
[8] = target: mGluR2 (Homo sapiens, UniProt Q14416); settings: as disclosed in WO 2009/148403; cited from earlier work
Chain of mGluR2 (Q14416 19-872): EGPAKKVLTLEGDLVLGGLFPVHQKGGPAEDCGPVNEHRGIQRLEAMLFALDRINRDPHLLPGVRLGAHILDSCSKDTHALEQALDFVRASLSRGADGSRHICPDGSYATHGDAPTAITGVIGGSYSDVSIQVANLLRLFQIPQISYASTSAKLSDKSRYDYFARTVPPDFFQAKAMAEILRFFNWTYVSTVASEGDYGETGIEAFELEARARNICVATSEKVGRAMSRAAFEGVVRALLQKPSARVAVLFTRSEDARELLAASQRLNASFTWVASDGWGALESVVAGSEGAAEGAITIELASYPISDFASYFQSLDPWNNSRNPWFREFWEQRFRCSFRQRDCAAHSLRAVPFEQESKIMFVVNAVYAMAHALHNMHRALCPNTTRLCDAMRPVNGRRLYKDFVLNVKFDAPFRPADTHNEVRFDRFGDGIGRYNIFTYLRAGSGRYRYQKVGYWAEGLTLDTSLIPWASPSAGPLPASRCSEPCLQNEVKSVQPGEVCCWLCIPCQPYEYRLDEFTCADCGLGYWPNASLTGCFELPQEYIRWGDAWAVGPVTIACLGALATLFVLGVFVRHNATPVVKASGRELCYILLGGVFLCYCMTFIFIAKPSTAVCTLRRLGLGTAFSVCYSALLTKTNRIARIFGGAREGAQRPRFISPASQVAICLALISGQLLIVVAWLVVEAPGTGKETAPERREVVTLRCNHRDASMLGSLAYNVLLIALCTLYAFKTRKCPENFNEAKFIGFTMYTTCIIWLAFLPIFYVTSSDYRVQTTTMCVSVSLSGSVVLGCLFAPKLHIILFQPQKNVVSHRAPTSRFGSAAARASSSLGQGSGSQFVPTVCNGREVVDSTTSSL

T1 sequence (Q14416 19-872): as above
Chain of hERG ion channel (Q12809 whole entry): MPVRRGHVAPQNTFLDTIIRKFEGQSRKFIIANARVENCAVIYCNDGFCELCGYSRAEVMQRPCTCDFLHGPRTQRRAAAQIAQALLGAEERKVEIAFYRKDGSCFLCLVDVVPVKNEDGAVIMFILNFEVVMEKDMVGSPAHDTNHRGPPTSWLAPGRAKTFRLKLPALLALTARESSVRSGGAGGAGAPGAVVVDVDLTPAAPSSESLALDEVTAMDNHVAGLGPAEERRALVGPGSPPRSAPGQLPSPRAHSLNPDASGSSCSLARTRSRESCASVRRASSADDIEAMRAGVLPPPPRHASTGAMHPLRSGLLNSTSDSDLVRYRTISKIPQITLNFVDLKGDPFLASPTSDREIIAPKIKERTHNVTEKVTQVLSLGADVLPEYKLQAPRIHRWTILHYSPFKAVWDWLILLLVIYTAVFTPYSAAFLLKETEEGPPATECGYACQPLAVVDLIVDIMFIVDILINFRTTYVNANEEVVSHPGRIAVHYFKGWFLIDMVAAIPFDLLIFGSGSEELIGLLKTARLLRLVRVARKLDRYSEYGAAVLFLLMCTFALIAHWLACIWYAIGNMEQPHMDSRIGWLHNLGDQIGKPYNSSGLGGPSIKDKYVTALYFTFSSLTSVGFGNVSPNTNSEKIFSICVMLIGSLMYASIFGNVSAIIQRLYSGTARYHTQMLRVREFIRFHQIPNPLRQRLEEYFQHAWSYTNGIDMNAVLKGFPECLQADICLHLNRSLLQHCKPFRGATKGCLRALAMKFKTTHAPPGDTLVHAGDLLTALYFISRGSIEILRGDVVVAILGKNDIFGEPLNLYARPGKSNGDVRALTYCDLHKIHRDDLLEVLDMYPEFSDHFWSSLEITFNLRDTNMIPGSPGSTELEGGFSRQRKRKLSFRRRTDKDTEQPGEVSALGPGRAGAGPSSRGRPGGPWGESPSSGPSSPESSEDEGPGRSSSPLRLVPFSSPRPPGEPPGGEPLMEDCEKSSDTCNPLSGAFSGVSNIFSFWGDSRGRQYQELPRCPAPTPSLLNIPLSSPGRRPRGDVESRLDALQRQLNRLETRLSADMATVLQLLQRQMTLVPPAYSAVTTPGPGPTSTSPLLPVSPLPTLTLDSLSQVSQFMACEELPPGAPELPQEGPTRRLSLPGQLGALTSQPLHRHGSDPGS

EC50 [1] [µM] | AUC [2] [µM·h] | clearance [2] [mL/min/kg] | half-life [2] [min] | Turnover in human hepatocytes [3] | Parent compound disappeared ([3]; 60 minutes, absence of ketoconazole) | Turnover in presence of CYP3A inhibitor ([3]; with ketoconazole) | Turnover in recombinant CYP enzymes [4] | Relative UV abundance (%) Human [5] [%] | SMILES | Solubility [6] | Capacity to activate the hERG ion channel [7] | mGluR2 modulator activity [8]
0.17 ± 0.009 | 1.29 | 31.1 | 45.7 | very low turnover | Approximately 10% | No turnover was observed | No significant turnover was observed | 94.2 | [2H]C1([2H])OC([2H])([2H])C([2H])([2H])N(C(=O)c2cc(-c3cc(Cl)c4c(c3)CN([C@@H](C)C3CC3)C4=O)on2)C1([2H])[2H] [Compound A, (S)-7-chloro-2-(1-cyclopropylethyl)-5-(3-(morpholine-4-carbonyl-2,2,3,3,5,5,6,6-d8)isoxazol-5-yl)isoindolin-1-one] | – | – | –
0.121 ± 0.056 | 0.915 | 44.3 | 48.8 | – | – | – | predominantly metabolised by CYP3A4 | – | C[C@@H](C1CC1)N1Cc2cc(-c3cc(C(=O)N4CCOCC4)no3)cc(Cl)c2C1=O [Compound D, (S)-7-chloro-2-(1-cyclopropylethyl)-5-(3-(morpholine-4-carbonyl)isoxazol-5-yl)isoindolin-1-one, reference compound] | favorable solubility | low capacity to activate the hERG ion channel | highly active
